Structures are written as SMILES. Read-outs that look alike come from different tables or passages of the source.

These results are taken from PMC7827406, “Structure–Activity Relationship (SAR) Study of Spautin-1 to Entail the Discovery of Novel NEK4 Inhibitors” (International Journal of Molecular Sciences, 2021).

What all share (experiment): biochemical
Common to all, as to parameters: Eurofins KinaseProfiler full panel at Km ATP, residual kinase activity (%) relative to DMSO

For one assay, the target named is T1, ALK6(h) (Homo sapiens, UniProt O00238).
T1 construct: gene BMPR1B
T1 sequence (O00238 whole entry): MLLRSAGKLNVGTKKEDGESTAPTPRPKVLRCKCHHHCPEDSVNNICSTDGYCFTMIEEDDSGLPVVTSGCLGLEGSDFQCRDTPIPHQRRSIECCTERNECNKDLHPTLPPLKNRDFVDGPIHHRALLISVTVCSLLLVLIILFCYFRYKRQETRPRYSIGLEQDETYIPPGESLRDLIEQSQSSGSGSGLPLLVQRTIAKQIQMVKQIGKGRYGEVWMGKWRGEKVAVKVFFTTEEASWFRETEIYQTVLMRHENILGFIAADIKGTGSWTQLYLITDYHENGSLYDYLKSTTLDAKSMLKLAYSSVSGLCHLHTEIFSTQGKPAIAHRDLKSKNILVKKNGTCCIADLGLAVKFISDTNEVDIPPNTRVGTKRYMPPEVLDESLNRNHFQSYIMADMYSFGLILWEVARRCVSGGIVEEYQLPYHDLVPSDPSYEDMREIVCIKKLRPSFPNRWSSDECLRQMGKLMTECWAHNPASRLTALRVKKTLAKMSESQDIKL
Summed up:
(§1)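 Two 10 µM single-concentration screens were run: a competition-binding screen, in which DNA-tagged kinase bound to immobilized ligands was quantified by qPCR, and a radiometric activity panel at Km ATP. Each is expressed as residual kinase activity (%).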

The target of a further assay is T2, Bmx(h) (Homo sapiens, UniProt P51813).
T2 sequence (P51813 1-675): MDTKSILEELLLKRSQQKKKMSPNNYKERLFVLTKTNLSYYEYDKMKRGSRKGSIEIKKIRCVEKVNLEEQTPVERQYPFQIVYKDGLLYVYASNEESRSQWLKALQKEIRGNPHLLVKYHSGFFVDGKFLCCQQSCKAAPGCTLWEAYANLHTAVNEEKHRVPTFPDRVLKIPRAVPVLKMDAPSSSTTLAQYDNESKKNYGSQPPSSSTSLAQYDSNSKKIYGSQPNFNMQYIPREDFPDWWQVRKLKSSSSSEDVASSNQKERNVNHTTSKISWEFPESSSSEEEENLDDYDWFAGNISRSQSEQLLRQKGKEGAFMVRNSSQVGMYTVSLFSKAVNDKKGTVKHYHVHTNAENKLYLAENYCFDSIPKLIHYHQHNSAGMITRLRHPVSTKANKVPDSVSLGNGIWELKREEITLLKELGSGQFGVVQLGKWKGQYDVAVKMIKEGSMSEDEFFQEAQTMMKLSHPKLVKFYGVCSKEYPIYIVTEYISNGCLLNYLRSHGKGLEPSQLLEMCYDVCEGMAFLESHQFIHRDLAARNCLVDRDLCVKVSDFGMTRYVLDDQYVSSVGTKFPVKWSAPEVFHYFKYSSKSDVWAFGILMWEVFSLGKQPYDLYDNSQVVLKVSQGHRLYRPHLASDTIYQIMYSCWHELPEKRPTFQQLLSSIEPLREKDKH
The procedure, abridged:
as §1

A further assay has as its target PASK(h) (Homo sapiens, UniProt Q96RG2). Summed up:
as §1

Another assay has as its target T3, ASK1(h) (Homo sapiens, UniProt Q99683).
T3 construct: gene MAP3K5
T3 sequence (Q99683 1-1374): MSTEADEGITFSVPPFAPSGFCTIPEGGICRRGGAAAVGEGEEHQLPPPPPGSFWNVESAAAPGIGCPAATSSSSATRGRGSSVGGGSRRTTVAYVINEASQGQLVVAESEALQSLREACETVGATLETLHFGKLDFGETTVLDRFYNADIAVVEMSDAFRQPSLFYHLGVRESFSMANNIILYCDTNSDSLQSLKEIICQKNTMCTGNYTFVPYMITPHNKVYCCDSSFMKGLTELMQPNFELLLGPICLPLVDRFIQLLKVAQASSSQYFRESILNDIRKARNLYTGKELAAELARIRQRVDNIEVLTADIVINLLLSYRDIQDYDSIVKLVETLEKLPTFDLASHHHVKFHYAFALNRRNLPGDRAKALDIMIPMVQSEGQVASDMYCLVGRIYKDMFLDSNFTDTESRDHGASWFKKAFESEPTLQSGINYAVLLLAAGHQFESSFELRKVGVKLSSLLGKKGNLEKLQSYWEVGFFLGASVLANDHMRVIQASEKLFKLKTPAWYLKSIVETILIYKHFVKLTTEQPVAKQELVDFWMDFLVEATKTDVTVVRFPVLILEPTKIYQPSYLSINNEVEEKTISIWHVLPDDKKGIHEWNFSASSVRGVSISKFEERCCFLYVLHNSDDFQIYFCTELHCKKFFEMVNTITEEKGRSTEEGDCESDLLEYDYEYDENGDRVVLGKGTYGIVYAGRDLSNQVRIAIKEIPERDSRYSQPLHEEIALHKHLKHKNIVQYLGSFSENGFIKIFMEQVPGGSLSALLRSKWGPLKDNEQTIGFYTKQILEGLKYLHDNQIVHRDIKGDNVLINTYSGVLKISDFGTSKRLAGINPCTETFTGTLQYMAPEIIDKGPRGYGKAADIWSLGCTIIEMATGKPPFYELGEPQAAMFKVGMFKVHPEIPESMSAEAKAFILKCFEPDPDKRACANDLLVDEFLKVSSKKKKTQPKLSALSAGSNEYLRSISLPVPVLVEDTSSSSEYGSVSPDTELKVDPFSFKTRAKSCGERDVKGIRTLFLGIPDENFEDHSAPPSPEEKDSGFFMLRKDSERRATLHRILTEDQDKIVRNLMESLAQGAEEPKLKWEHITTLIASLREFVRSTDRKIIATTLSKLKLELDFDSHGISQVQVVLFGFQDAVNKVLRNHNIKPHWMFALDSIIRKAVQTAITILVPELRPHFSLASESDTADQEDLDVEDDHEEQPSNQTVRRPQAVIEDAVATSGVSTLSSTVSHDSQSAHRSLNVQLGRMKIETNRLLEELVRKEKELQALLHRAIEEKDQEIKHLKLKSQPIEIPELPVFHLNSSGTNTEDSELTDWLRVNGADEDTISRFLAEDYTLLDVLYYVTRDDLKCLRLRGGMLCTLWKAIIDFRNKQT
Summed up:
as §1

Another assay addresses T4, CDK5/p35(h) (Homo sapiens, UniProt Q00535).
T4 construct: p35
The procedure, abridged:
as §1

[1] abbreviates: read-out: Residual activity (%) Spautin-1 5aa.
[2] abbreviates: read-out: Residual activity (%) 5as.
[3] abbreviates: read-out: Residual activity (%) 5at.
[4] abbreviates: read-out: Residual activity (%) 5ay.

Chain of PASK(h) (Q96RG2 whole entry): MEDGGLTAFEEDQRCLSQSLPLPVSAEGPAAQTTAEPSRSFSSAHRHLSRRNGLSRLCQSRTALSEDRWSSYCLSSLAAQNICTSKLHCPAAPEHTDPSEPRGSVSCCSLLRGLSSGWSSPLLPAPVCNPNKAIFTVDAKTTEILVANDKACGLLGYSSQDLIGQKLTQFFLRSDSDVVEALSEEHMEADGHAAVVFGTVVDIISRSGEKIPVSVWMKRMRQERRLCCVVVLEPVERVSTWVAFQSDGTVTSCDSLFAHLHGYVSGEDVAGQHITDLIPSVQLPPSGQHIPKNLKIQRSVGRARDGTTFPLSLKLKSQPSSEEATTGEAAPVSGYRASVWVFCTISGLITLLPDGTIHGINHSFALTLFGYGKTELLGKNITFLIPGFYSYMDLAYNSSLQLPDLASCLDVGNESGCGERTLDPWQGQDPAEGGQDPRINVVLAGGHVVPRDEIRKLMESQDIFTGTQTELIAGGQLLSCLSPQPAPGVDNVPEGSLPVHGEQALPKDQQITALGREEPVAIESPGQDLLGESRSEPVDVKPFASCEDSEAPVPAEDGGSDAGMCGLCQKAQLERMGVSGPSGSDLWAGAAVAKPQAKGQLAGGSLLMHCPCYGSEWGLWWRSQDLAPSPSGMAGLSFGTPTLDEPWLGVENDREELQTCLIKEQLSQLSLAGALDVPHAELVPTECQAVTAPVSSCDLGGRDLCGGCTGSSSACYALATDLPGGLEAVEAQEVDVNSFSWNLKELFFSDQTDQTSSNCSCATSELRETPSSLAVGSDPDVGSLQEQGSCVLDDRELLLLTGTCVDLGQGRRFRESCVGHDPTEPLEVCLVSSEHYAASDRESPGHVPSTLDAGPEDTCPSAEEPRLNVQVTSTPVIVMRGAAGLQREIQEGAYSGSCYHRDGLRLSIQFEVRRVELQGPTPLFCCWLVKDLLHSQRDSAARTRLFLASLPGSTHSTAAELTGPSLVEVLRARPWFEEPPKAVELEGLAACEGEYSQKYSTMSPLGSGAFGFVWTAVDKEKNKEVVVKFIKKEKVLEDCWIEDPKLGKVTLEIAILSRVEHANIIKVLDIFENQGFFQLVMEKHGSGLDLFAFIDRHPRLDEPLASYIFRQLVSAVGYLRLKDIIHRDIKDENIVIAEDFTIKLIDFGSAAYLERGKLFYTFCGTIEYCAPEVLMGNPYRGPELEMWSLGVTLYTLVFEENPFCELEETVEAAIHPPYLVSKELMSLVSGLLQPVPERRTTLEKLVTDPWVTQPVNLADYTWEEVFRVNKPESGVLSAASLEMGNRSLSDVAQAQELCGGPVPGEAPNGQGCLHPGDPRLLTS
T4 sequence (Q00535 whole entry): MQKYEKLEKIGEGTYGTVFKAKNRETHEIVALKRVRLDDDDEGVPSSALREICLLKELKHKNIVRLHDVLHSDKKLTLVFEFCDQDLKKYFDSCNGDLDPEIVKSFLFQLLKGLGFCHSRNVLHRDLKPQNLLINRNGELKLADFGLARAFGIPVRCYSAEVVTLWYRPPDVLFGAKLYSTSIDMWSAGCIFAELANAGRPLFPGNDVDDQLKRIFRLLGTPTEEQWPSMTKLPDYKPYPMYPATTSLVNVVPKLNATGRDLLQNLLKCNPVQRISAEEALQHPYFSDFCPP
T4 sequence (Q15078 whole entry partner): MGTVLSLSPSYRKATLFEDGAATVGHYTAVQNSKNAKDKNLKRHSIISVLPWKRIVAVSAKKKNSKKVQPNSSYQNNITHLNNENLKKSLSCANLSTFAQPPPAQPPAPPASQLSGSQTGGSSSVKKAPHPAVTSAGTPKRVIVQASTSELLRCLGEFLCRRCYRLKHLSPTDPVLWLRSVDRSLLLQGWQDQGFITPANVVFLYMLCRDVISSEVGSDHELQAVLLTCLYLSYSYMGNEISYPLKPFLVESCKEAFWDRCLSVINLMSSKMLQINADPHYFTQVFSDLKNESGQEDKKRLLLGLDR

As to `Fc1ccc(CNc2ncnc3ccc(F)cc23)cc1` [5aa, 6-Fluoro-N-(4-fluorobenzyl)-4-Quinazolinamine], the remaining activity at 10 µM on ALK6(h) (setting [1]) turned out to be 94%; at Bmx(h) (setting [1]), 79%; at PASK(h) (setting [1]) it was 66%; on ASK1(h) (setting [1]), 95%; at CDK5/p35(h) (setting [1]), 87%.
As to `Fc1ccc(CCNc2ncnc3ccc(F)cc23)cc1` [5as, 6-Fluoro-N-[2-(4-Fluorophenyl)Ethyl]-4-Quinazolinamine], the remaining activity at 10 µM at ALK6(h) (setting [2]) was determined as 86%; on Bmx(h) (setting [2]), 78%; on PASK(h) (setting [2]) it was 44%; on ASK1(h) (setting [2]), 85%; at CDK5/p35(h) (setting [2]) it was 87%.
For the molecule `Fc1ccc2ncnc(NCCc3ccc(Cl)cc3)c2c1` [5at, N-[2-(4-Chlorophenyl)Ethyl]-6-Fluoro-4-Quinazolinamine], the remaining activity at 10 µM at ALK6(h) (setting [3]) is 92%; on Bmx(h) (setting [3]), 78%; at PASK(h) (setting [3]), 30%; on ASK1(h) (setting [3]), 80%; at CDK5/p35(h) (setting [3]), 87%.
In the case of `COc1ccc2ncnc(Nc3cccc(F)c3)c2c1` [5ay, N-(3-Fluorophenyl)-6-Methoxy-4-Quinazolinamine], the remaining activity at 10 µM amounted to 87% at ALK6(h) (setting [4]); 77% at Bmx(h) (setting [4]); 65% at PASK(h) (setting [4]); 99% on ASK1(h) (setting [4]); 89% at CDK5/p35(h) (setting [4]).
